{
  "source": "patent US20150031102A1",
  "about": "“METHODS AND COMPOSITIONS FOR ENHANCED PRODUCTION OF BUTANOL BY CLOSTRIDIA” (Butrolix LLC, priority 2012, published 2015)",
  "tested_on": "C. acetobutylicum",
  "assay": "Continuous culture, 2.5 L, dilution rate 0.01 per hour, 20 days (butanol, residual glucose, optical density, pH, yield, productivity)",
  "assay_type": "cell-based, Clostridium acetobutylicum",
  "details": "for Productivity / Yield / Butanol: 50 nM peptide, Table 54; for Butanol: average ± SD of triplicate samples",
  "description": "Lastly, 2.5 L continuous culture studies were conducted using the optimum peptide treatment level that was determined by the sequential batch transfer experiments. An untreated and a peptide-treated culture were grown in parallel, identical vessels with identical dilution rates for 20 days. The continuous cultures were initiated by inoculating 2.25 L of sterile medium in each culture vessel using 250 mL of peptide-treated and untreated batch cultures that had been grown for 24 hours. The batch cultures used as inoculum were the third of sequential batch transfer cultures, which made inoculation of the continuous cultures the fourth sequential transfer. After inoculation, the continuous cultures were grown for 24 hours before beginning to feed fresh medium at a rate of 0.01 volumes per hour. Triplicate samples were taken from each continuous culture every 24 hours. Optical density of the replicates was measured and culture supernatants were recovered following centrifugation and analyzed later for butanol and residual glucose concentrations. The analyses were used to calculate yield and productivity of the cultures.\nClostridium acetobutylicum strain ATCC 824 was used in all experiments and the growth medium used for sequential batch transfer, time course, and continuous culture experiments contained yeast extract, casamino acids, L-cysteine, L-asparagine, phosphate buffer, trace minerals, and 6% glucose. What are believed to be quorum-sensing peptides that were used in the experiments were chemically synthesized peptides SEQ ID NO: 143 (amino acid sequence: SYPGWSW) and SEQ ID NO: 144 (amino acid sequence: ILILISG). Routine growth of the bacteria as well as the sequential batch and time course experiments were conducted in a Form a Scientific Model 1029 anaerobic gas chamber at 32° C. Continuous cultures were performed at 32° C. using duplicate New Brunswick Scientific BioFlo 3000 apparati with a dilution rate of 0.01 volume per hour, 75 rpm agitation, and nitrogen gas sparging. Optical density of culture samples was measured at 600 nm in a Beckman DU 600 series spectrophotometer and glucose was analyzed using a YSI Model 2700 Select Biochemistry Analyzer with internal glucose calibration. Butanol concentrations were determined by measuring experimental and standard samples using a Varian Saturn 3 Gas Chromatograph/Mass Spectrometer and calculating butanol concentrations using standard curves.\nData from continuous cultures using a 6% glucose medium in vessels with a working volume of 2.5 L run at a dilution rate of 0.01 per hour. Two vessels were run in parallel, one of which was treated with 50 nM of peptide SEQ ID NO: 143 and the other was untreated. The vessels were sparged continuously with nitrogen gas to maintain anaerobic conditions and were agitated at 75 rpm. On Day 0, the vessels were inoculated with a 1/10 volume (250 mL) of overnight cultures that were either treated with peptide or untreated, and that were the third transfer of the cultures, which made inoculation of the continuous cultures the fourth transfer. Triplicate samples were collected aseptically from each vessel immediately after inoculation and every 24 hours thereafter. The cultures were allowed to grow for 24 hours prior to beginning to feed fresh medium, and were maintained for 20 days each, without pH control. The optical density of each sample was measured immediately at 600 nm, the samples were centrifuged to remove cells, and the cell-free supernatants were frozen for later analysis. A representative experiment is shown in FIG. 19 and Tables 34 and 35.\nUsing the optimum peptide treatment level that was determined by the sequential batch transfer experiments, 2.5 L continuous culture studies were conducted. An untreated and a peptide-treated culture were grown in parallel, identical vessels using the same dilution rates for 20 days for each of the peptides BP110517 and BP1106213. […]",
  "key": {"[1]": {"details": "24 hour period preceding day 10"}, "[2]": {"details": "24 hour period preceding day 11"}, "[3]": {"details": "24 hour period preceding day 12"}, "[4]": {"details": "24 hour period preceding day 13"}, "[5]": {"details": "24 hour period preceding day 14"}, "[6]": {"details": "24 hour period preceding day 15"}, "[7]": {"details": "24 hour period preceding day 16"}, "[8]": {"details": "24 hour period preceding day 17"}, "[9]": {"details": "24 hour period preceding day 18"}, "[10]": {"details": "24 hour period preceding day 19"}, "[11]": {"details": "24 hour period preceding day 20"}},
  "data": [
    {"substance": "ILILISG (Derived from Clostridium acetobutylicum SEQ ID NO: 110) [peptide SEQ ID NO: 144]", "values": [
      {"measurement": "Butanol content compared with the untreated culture", "setting": "50 nM BP1106213, starting at day 2 and throughout the rest of the study", "result": "untreated culture remained significantly higher"},
      {"measurement": "pH", "setting": "50 nM BP1106213 and its untreated control, after the first 4 days, for the duration of both cultures", "result": "~4.2"},
      {"measurement": "Optical density (600 nm)", "setting": "50 nM BP1106213 and its untreated control, almost the complete duration of the cultures", "result": "above 2.0"},
      {"measurement": "Glucose consumption", "setting": "50 nM BP1106213 and untreated, day three through the end of the study", "result": "entirely consumed"},
      {"measurement": "Productivity", "setting": "24 hour period preceding day 1", "result": 0.53, "unit": "g Butanol/L-h"},
      {"measurement": "Yield", "setting": "24 hour period preceding day 1", "result": 0.19, "unit": "g Butanol/g Glucose"},
      {"measurement": "Productivity", "setting": "24 hour period preceding day 2", "result": "−0.17", "unit": "g Butanol/L-h"},
      {"measurement": "Yield", "setting": "24 hour period preceding day 2", "result": "−0.28", "unit": "g Butanol/g Glucose"},
      {"measurement": "Productivity", "setting": "24 hour period preceding day 3", "result": 0.07, "unit": "g Butanol/L-h"},
      {"measurement": "Yield", "setting": "24 hour period preceding day 3", "result": 0.11, "unit": "g Butanol/g Glucose"},
      {"measurement": "Productivity", "setting": "24 hour period preceding day 4", "result": 0.29, "unit": "g Butanol/L-h"},
      {"measurement": "Yield", "setting": "24 hour period preceding day 4", "result": 0.46, "unit": "g Butanol/g Glucose"},
      {"measurement": "Productivity", "setting": "24 hour period preceding day 5", "result": 0.24, "unit": "g Butanol/L-h"},
      {"measurement": "Yield", "setting": "24 hour period preceding day 5", "result": 0.39, "unit": "g Butanol/g Glucose"},
      {"measurement": "Productivity", "setting": "24 hour period preceding day 6", "result": 0.07, "unit": "g Butanol/L-h"},
      {"measurement": "Yield", "setting": "24 hour period preceding day 6", "result": 0.11, "unit": "g Butanol/g Glucose"},
      {"measurement": "Productivity", "setting": "24 hour period preceding day 7", "result": 0.14, "unit": "g Butanol/L-h"},
      {"measurement": "Yield", "setting": "24 hour period preceding day 7", "result": 0.23, "unit": "g Butanol/g Glucose"},
      {"measurement": "Productivity", "setting": "24 hour period preceding day 8", "result": 0.06, "unit": "g Butanol/L-h"},
      {"measurement": "Yield", "setting": "24 hour period preceding day 8", "result": 0.10, "unit": "g Butanol/g Glucose"},
      {"measurement": "Productivity", "setting": "24 hour period preceding day 9", "result": 0.07, "unit": "g Butanol/L-h"},
      {"measurement": "Yield", "setting": "24 hour period preceding day 9", "result": 0.11, "unit": "g Butanol/g Glucose"},
      {"measurement": "Productivity", "setting": "[1]", "result": 0.00, "unit": "g Butanol/L-h"},
      {"measurement": "Yield", "setting": "[1]", "result": 0.01, "unit": "g Butanol/g Glucose"},
      {"measurement": "Productivity", "setting": "[2]", "result": 0.20, "unit": "g Butanol/L-h"},
      {"measurement": "Yield", "setting": "[2]", "result": 0.33, "unit": "g Butanol/g Glucose"},
      {"measurement": "Productivity", "setting": "[3]", "result": 0.02, "unit": "g Butanol/L-h"},
      {"measurement": "Yield", "setting": "[3]", "result": 0.04, "unit": "g Butanol/g Glucose"},
      {"measurement": "Productivity", "setting": "[4]", "result": "−0.11", "unit": "g Butanol/L-h"},
      {"measurement": "Yield", "setting": "[4]", "result": "−0.18", "unit": "g Butanol/g Glucose"},
      {"measurement": "Productivity", "setting": "[5]", "result": 0.00, "unit": "g Butanol/L-h"},
      {"measurement": "Yield", "setting": "[5]", "result": 0.00, "unit": "g Butanol/g Glucose"},
      {"measurement": "Productivity", "setting": "[6]", "result": 0.03, "unit": "g Butanol/L-h"},
      {"measurement": "Yield", "setting": "[6]", "result": 0.05, "unit": "g Butanol/g Glucose"},
      {"measurement": "Productivity", "setting": "[7]", "result": 0.11, "unit": "g Butanol/L-h"},
      {"measurement": "Yield", "setting": "[7]", "result": 0.17, "unit": "g Butanol/g Glucose"},
      {"measurement": "Productivity", "setting": "[8]", "result": "−0.01", "unit": "g Butanol/L-h"},
      {"measurement": "Yield", "setting": "[8]", "result": "−0.02", "unit": "g Butanol/g Glucose"},
      {"measurement": "Productivity", "setting": "[9]", "result": 0.01, "unit": "g Butanol/L-h"},
      {"measurement": "Yield", "setting": "[9]", "result": 0.01, "unit": "g Butanol/g Glucose"},
      {"measurement": "Productivity", "setting": "[10]", "result": 0.06, "unit": "g Butanol/L-h"},
      {"measurement": "Yield", "setting": "[10]", "result": 0.09, "unit": "g Butanol/g Glucose"},
      {"measurement": "Productivity", "setting": "[11]", "result": 0.01, "unit": "g Butanol/L-h"},
      {"measurement": "Yield", "setting": "[11]", "result": 0.01, "unit": "g Butanol/g Glucose"},
      {"measurement": "Butanol", "setting": "day 0", "result": "0.6 ± 0.0", "unit": "g/L"},
      {"measurement": "Butanol", "setting": "day 1", "result": "7.0 ± 0.5", "unit": "g/L"},
      {"measurement": "Butanol", "setting": "day 2", "result": "8.2 ± 0.9", "unit": "g/L"},
      {"measurement": "Butanol", "setting": "day 3", "result": "6.9 ± 0.6", "unit": "g/L"},
      {"measurement": "Butanol", "setting": "day 4", "result": "5.0 ± 0.2", "unit": "g/L"},
      {"measurement": "Butanol", "setting": "day 5", "result": "4.6 ± 0.3", "unit": "g/L"},
      {"measurement": "Butanol", "setting": "day 6", "result": "5.2 ± 0.2", "unit": "g/L"},
      {"measurement": "Butanol", "setting": "day 7", "result": "4.9 ± 0.2", "unit": "g/L"},
      {"measurement": "Butanol", "setting": "day 8", "result": "5.6 ± 0.0", "unit": "g/L"},
      {"measurement": "Butanol", "setting": "day 9", "result": "5.1 ± 0.1", "unit": "g/L"},
      {"measurement": "Butanol", "setting": "day 10", "result": "5.1 ± 0.0", "unit": "g/L"},
      {"measurement": "Butanol", "setting": "day 11", "result": "5.2 ± 0.2", "unit": "g/L"},
      {"measurement": "Butanol", "setting": "day 12", "result": "5.1 ± 0.1", "unit": "g/L"},
      {"measurement": "Butanol", "setting": "day 13", "result": "5.0 ± 0.1", "unit": "g/L"},
      {"measurement": "Butanol", "setting": "day 14", "result": "5.4 ± 0.1", "unit": "g/L"},
      {"measurement": "Butanol", "setting": "day 15", "result": "5.5 ± 0.1", "unit": "g/L"},
      {"measurement": "Butanol", "setting": "day 16", "result": "5.5 ± 0.1", "unit": "g/L"},
      {"measurement": "Butanol", "setting": "day 17", "result": "5.3 ± 0.1", "unit": "g/L"},
      {"measurement": "Butanol", "setting": "day 18", "result": "5.1 ± 0.2", "unit": "g/L"},
      {"measurement": "Butanol", "setting": "day 19", "result": "4.3 ± 0.2", "unit": "g/L"},
      {"measurement": "Butanol", "setting": "day 20", "result": "2.9 ± 0.1", "unit": "g/L"},
      {"measurement": "Effect on differentiation and butanol production", "setting": "continuous cultures", "result": "strong inhibitor of differentiation and butanol production"}
    ]}
  ]
}
